Measured values taken from patent publication US8916565B2, “Pyrrolopyrazine-spirocyclic piperidine amides as modulators of ion channels” (priority 2011, dated 2014).

Molecular target: human NaV subtype, like NaV 1.7 (Homo sapiens, UniProt Q15858)
Experiment: E-VIPR optical membrane potential assay with electrical stimulation
Assay type: cell-based
Details: active against one or more sodium channels; Table 3 does not name the assay or NaV subtype; read-out: Binned Activity Data (IC50)

human NaV subtype, like NaV 1.7, sequence (Q15858 whole entry): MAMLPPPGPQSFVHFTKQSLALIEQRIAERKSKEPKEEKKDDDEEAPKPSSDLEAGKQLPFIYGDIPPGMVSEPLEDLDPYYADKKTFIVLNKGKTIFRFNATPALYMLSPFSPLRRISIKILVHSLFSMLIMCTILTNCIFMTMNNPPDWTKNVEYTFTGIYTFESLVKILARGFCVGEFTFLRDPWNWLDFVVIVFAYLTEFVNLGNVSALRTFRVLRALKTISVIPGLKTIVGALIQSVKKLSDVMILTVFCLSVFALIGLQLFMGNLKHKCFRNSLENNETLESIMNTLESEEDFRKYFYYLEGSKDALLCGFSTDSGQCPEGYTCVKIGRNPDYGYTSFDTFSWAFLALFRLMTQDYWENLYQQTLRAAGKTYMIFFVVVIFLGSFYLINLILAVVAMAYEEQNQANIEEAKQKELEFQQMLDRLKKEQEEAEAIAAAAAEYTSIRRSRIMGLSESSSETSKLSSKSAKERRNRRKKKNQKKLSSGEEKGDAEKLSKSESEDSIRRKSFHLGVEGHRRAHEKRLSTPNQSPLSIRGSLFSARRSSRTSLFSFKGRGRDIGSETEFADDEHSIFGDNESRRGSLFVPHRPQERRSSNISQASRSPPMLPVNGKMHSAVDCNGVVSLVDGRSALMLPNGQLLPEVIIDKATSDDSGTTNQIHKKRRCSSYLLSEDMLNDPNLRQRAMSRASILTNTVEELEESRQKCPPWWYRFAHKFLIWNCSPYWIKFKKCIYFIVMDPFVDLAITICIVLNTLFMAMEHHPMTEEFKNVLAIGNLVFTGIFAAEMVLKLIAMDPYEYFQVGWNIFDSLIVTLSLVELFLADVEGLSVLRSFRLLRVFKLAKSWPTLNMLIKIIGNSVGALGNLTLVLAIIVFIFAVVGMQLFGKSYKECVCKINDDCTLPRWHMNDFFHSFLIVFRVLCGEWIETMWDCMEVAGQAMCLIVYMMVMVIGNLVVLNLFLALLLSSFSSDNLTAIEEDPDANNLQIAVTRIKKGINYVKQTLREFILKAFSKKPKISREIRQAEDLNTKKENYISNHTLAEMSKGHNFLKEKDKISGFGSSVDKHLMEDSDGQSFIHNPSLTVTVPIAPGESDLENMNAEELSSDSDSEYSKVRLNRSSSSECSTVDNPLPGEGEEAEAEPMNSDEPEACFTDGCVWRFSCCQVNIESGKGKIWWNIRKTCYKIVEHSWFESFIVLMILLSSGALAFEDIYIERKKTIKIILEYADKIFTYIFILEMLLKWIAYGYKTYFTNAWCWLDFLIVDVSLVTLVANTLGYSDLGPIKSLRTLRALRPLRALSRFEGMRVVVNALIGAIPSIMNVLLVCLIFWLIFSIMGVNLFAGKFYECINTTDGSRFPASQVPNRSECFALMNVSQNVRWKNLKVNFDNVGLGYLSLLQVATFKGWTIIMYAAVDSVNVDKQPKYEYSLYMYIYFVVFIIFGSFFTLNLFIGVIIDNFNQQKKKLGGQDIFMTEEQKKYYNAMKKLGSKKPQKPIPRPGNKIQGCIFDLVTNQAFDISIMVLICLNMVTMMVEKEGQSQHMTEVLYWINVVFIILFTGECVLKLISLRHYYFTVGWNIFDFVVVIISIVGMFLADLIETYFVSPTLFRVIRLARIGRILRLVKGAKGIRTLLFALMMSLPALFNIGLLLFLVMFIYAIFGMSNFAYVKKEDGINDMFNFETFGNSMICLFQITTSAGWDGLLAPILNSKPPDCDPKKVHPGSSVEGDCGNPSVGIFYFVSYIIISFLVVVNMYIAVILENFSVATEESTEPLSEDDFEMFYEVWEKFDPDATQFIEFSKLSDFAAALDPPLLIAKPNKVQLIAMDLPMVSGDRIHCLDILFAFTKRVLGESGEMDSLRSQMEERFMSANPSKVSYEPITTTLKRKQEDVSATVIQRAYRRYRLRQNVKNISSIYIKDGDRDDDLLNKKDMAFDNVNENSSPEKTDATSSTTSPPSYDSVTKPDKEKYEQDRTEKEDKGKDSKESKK

SMILES	IC50 [nM]
CC(C)CCOc1ccc(C(=O)N2CCC3(CC2)c2ccc(C(=O)C(F)(F)F)n2C(C)CN3C)cc1 (centres unmarked) [Compound 646]	≤ 2000
Cc1nc(C(=O)N2CCC3(CC2)c2ccc(Cl)n2CCN3C)ccc1OC(C)C [Compound 648]	≤ 2000
COc1cc(C(=O)N2CCC3(CC2)c2ccc(Cl)n2CCN3C)ccc1OCCOC(F)(F)F [Compound 650]	≤ 2000
CN(C)c1ncccc1C(=O)N1CCC2(CC1)c1ccc(C(F)(F)F)n1CCN2C [Compound 652]	> 5000
CC(C)Oc1ccc(C(=O)N2CCC3(CC2)NC(C)(C)Cn2c(C(F)(F)F)ccc23)cc1F [Compound 655]	≤ 2000
Cc1cc(C(=O)N2CCC3(CC2)c2c(Cl)cc(C(F)(F)F)n2CCN3C)ncc1OC(C)C [Compound 657]	≤ 2000
Cc1cc(C(=O)N2CCC3(CC2)c2ccc(C(F)(F)F)n2CCN3C)ccc1C1COC1 [Compound 658]	≤ 2000
CCN(C)c1cc(C)nc2c(C(=O)N3CCC4(CC3)c3ccc(C(F)(F)F)n3CCN4C)cnn12 [Compound 660]	≤ 2000
COCCN1CCn2c(C(F)(F)F)ccc2C12CCN(C(=O)c1ccccc1OC(F)(F)F)CC2 [Compound 662]	≤ 2000
CC(C)Oc1ccc(C(=O)N2CCC3(CC2)c2ccc(C(F)(F)C(F)(F)F)n2CCN3C)cc1Cl [Compound 664]	≤ 2000
COc1cc(C(=O)N2CCC3(CC2)NC(C)(C)Cn2c(C(F)(F)F)ccc23)ccc1OC(C)(C)C [Compound 667]	≤ 2000
CCc1ccc(C(=O)N2CCC3(CC2)c2c(F)cc(C(F)(F)F)n2CCN3C)cc1OC [Compound 668]	≤ 2000
Cc1cc(C(=O)N2CCC3(CC2)c2c(F)cc(C(F)(F)F)n2CCN3C)ccc1OC(C)C [Compound 672]	≤ 2000
Cc1cc(C)n2ncc(C(=O)N3CCC4(CC3)c3ccc(C(F)(F)F)n3CCN4C)c2n1 [Compound 673]	≤ 2000
COc1c(C)cccc1C(=O)N1CCC2(CC1)c1ccc(C(=O)C(F)(F)F)n1C[C@H](C)N2C [Compound 675]	≤ 2000
COc1cc(C(=O)N2CCC3(CC2)c2ccc(C(F)(F)F)n2C[C@@H](C)N3C)ccc1OC(C)C [Compound 677]	> 5000
CN1CCn2c(Cl)ccc2C12CCN(C(=O)c1cccc3cccnc13)CC2 [Compound 679]	2000 to 5000
COC(=O)N1CCn2c(C(F)(F)F)ccc2C12CCN(C(=O)c1ccc(C(C)(C)O)c(C)c1)CC2 [Compound 683]	≤ 2000
CCN(CC)c1ncccc1C(=O)N1CCC2(CC1)c1ccc(C(F)(F)F)n1CCN2C [Compound 684]	> 5000
COc1cc(C(=O)N2CCC3(CC2)NC(C)(C)Cn2c(C(=O)C(F)(F)F)ccc23)ccc1OCCC(C)C [Compound 686]	≤ 2000
COc1cc(C(=O)N2CCC3(CC2)c2c(Cl)cc(C(F)(F)F)n2CCN3C)ccc1COCC(F)(F)F [Compound 687]	≤ 2000
COc1cc(C(=O)N2CCC3(CC2)c2ccc(C(F)(F)F)n2CCN3C2CC2)ccc1OC(C)C [Compound 690]	≤ 2000
CC1Cn2c(C(F)(F)F)ccc2C2(CCN(C(=O)c3ccc(OC(C)C)c(F)c3)CC2)N1 (centres unmarked) [Compound 692]	≤ 2000
CC(C)Oc1ccc(C(=O)N2CCC3(CC2)c2ccc(C(=O)C(F)(F)F)n2C[C@H](C)N3C)c(F)c1 [Compound 695]	≤ 2000
CCCOc1ccc(C(=O)N2CCC3(CC2)c2ccc(Cl)n2CCN3C)cc1OC [Compound 698]	2000 to 5000
C[C@H]1Cn2c(C(=O)C(F)(F)F)ccc2C2(CCN(C(=O)c3ccc(O)c(Cl)c3)CC2)N1C [Compound 700]	≤ 2000

Continued, values first:

IC50 [nM]	SMILES
≤ 2000	Cc1cc(C(=O)N2CCC3(CC2)c2ccc(C(F)(F)C(F)(F)F)n2CCN3C)ccc1C(C)(C)O [Compound 647]
≤ 2000	C[C@H]1Cn2c(C(=O)C(F)(F)F)ccc2C2(CCN(C(=O)c3ccc(S(=O)(=O)C(F)(F)F)cc3)CC2)N1C [Compound 649]
2000 to 5000	CC(=O)Nc1ccc(-c2ccc(C(=O)N3CCC4(CC3)c3ccc(C(=O)C(F)(F)F)n3CCN4C)cc2C)cn1 [Compound 653]
≤ 2000	Cc1cc(C(=O)N2CCC3(CC2)c2ccc(C(=O)C(C)(C)C)n2CCN3C)ccc1S(=O)(=O)C(C)C [Compound 654]
≤ 2000	CC(C)Oc1ccc(C(=O)N2CCC3(CC2)c2ccc(C(=O)C4(C)CC4)n2CCN3C)cc1CO [Compound 656]
> 5000	CN1CCn2c(C(F)(F)F)ccc2C12CCN(C(=O)c1ccc(-c3ccccc3)cc1)CC2 [Compound 659]
≤ 2000	CC(C)CCOc1ccc(C(=O)N2CCC3(CC2)c2ccc(C(=O)C(C)(C)C)n2CCN3C)cc1 [Compound 661]
≤ 2000	COc1ccc(C(=O)N2CCC3(CC2)c2ccc(C(=O)C(F)(F)F)n2CCN3C)cc1C [Compound 663]
≤ 2000	CC(=O)c1ccc2n1CCN(C)C21CCN(C(=O)c2ccc(COc3ccccc3)cc2)CC1 [Compound 665]
≤ 2000	CN1CCn2c(C(F)(F)F)cc(F)c2C12CCN(C(=O)c1ccc(S(=O)(=O)NC3CC3)cc1)CC2 [Compound 666]
≤ 2000	C[C@H]1Cn2c(C(=O)C(F)(F)F)ccc2C2(CCN(C(=O)c3ccc(S(=O)(=O)NC4CC4)cc3)CC2)N1C [Compound 669]
> 5000	CN1CCn2c(Cl)ccc2C12CCN(C(=O)c1ccc(S(=O)(=O)C(F)F)cc1)CC2 [Compound 670]
≤ 2000	CCCN(CCC)S(=O)(=O)c1ccc(C(=O)N2CCC3(CC2)c2ccc(C(=O)C(F)(F)F)n2CCN3C)cc1 [Compound 671]
≤ 2000	CC(C)Oc1ccc(C(=O)N2CCC3(CC2)c2ccc(C(=O)C(C)C)n2CCN3C)cc1Cl [Compound 674]
≤ 2000	CC(C)Oc1ccc(C(=O)N2CCC3(CC2)c2ccc(C(=O)C(F)(F)F)n2CCN3C)cc1C(F)(F)F [Compound 676]
2000 to 5000	CC(C)Oc1ccc(C(=O)N2CCC3(CC2)c2ccc(Cl)n2CCN3C)cc1CO [Compound 678]
≤ 2000	CN1CCn2c(C(=O)C(C)(C)C)ccc2C12CCN(C(=O)c1ccc(S(=O)(=O)C(C)(C)C)cc1)CC2 [Compound 680]
2000 to 5000	CC(=O)c1ccc2n1CCN(C)C21CCN(C(=O)c2ccc(OCC(C)(C)O)c(C)c2)CC1 [Compound 681]
> 5000	Cc1cc(C(=O)N2CCC3(CC2)c2ccc(C(=O)C(C)(C)C)n2CCN3C)ccc1S(C)(=O)=O [Compound 682]
≤ 2000	CN1CCn2c(C(=O)C3(C)CC3)ccc2C12CCN(C(=O)c1ccc(O)c(C(F)(F)F)c1)CC2 [Compound 685]
≤ 2000	CN1CCn2c(C(=O)C(F)(F)F)ccc2C12CCN(C(=O)c1ccc(CC(C)(C)O)cc1)CC2 [Compound 688]
> 5000	CN1CCn2c(C(=O)C3(C)CC3)ccc2C12CCN(C(=O)c1ccc(S(=O)(=O)C(C)(C)C)cc1)CC2 [Compound 689]
≤ 2000	CC(=O)c1ccc2n1CCN(C)C21CCN(C(=O)c2ccc(OC(C)C)c(C)n2)CC1 [Compound 691]
2000 to 5000	COc1ccc(C(=O)N2CCC3(CC2)c2ccc(C(=O)c4ccccc4)n2CCN3C)cc1C [Compound 694]
> 5000	CC(C)Oc1ccc(C(=O)N2CCC3(CC2)c2ccc(Cl)n2CCN3C)cc1 [Compound 696]
≤ 2000	COc1ccc(C(=O)N2CCC3(CC2)c2ccc(C(=O)C(F)(F)F)n2CCN3C)cc1Cl [Compound 697]
≤ 2000	CCCCOc1ccc(C(=O)N2CCC3(CC2)c2ccc(C(C)=O)n2CCN3C)cc1OC [Compound 699]
